For orientation: pIC50 means the negative decadic logarithm of the IC50, by convention in mol/L. Low values mean a high IC50, high ones a low IC50.

pIC50: −log10 of the molar value.

Here are results for 11 molecules from ChEMBL document CHEMBL1143485, “The synthesis and biological evaluation of dopamine transporter inhibiting activity of substituted diphenylmethoxypiperidines” (Bioorg Med Chem Lett, 2005).

The subject of one assay is Mus musculus. In words: Locomotor activity in mice after intraperitoneal administration at 17.8 […]. The format is functional.
Assay [1] deals with Sodium-dependent dopamine transporter (Rattus norvegicus, UniProt P23977). In words: Displacement of [125I]RTI-55 dopamine transporter binding in rat striatal membrane. Type of assay: cell membranes, Striatum. For orientation: In a radioligand displacement assay an active substance lowers the binding of a labelled ligand.
Sequence of Sodium-dependent dopamine transporter (P23977 whole entry): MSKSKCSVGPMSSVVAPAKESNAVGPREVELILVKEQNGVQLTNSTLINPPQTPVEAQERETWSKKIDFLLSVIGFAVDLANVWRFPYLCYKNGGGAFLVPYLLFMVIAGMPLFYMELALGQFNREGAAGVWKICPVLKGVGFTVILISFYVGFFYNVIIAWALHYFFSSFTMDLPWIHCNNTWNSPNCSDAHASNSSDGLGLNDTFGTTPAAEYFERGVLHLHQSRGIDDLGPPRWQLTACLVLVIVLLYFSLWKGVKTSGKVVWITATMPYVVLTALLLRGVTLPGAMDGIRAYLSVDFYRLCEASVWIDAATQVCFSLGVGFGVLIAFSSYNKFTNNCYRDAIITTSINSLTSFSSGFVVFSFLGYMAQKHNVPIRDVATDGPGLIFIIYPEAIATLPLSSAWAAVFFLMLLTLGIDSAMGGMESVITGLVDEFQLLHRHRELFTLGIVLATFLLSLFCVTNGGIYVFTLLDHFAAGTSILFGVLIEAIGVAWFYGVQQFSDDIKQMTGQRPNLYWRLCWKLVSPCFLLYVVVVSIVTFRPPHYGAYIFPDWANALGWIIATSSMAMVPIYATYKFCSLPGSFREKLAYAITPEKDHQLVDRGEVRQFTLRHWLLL

The molecule `CN1CCC(OC(c2ccc(F)cc2)c2ccc(F)cc2)CC1` gave an Activity with Mus musculus of 34.8 m/3h. `CN1CCC(OC(c2ccccc2)c2ccc(F)cc2)CC1` (centres undefined) had a negative-log IC50 (pIC50) in assay [1] of 6.56. In turn, `CN1CCC(OC(c2ccc(Cl)cc2)c2ccc(Cl)cc2)CC1` gave a pIC50 in assay [1] of 7.36. This molecule displayed an Activity in the assay on Mus musculus of 5.18 m/3h. The molecule `Fc1ccc(CN2CCC(OC(c3ccc(Cl)cc3)c3ccc(Cl)cc3)CC2)cc1` showed a pIC50 in assay [1] of 7.30. `CN1CCC(OC(c2ccccc2)c2ccccc2)CC1` displayed an Activity in the assay with Mus musculus of 12.2 m/3h. On to `Cc1cccc(C(OC2CCN(C)CC2)c2ccccc2)c1` (centres undefined), for which the pIC50 in assay [1] is 6.53. `CC(OC1CCN(C)CC1)c1ccc(F)cc1` (centres undefined) had a pIC50 in assay [1] of 6.58. Consider `CCCCN1CCC(OC(c2ccc(Cl)cc2)c2ccc(Cl)cc2)CC1`, for which, in assay [1], the pIC50 was 7.90. In the assay on Mus musculus, this molecule had an Activity of 3.87 m/3h.

The molecule `Fc1ccc(C(OCCN2CCN(CCCc3ccccc3)CC2)c2ccc(F)cc2)cc1` [VANOXERINE] gave an Activity in the assay on Mus musculus of 26.3 m/3h. In assay [1], `CN1CCC(OC(c2ccccc2)c2ccc(Cl)cc2)CC1` (centres undefined) had a pIC50 of 6.81. In the assay with Mus musculus, this molecule yielded an Activity of 5.89 m/3h. Turning to `COC(=O)[C@H]1[C@@H](OC(=O)c2ccccc2)C[C@@H]2CC[C@H]1N2C` [COCAINE], the Activity with Mus musculus came to 16.7 m/3h.
